Measurements: patent publication US20220227729A1, “IDENTIFICATION AND USE OF KRAS INHIBITORS” (Bayer Aktiengesellschaft, priority 2019, published 2022)

Assays:
KRAS^G12C = KRAS^G12C (Homo sapiens, UniProt P01116, G12C); test: KRAS G12C activation by SOS1cat assay (On-assay), HTRF; conditions: SOS1cat mediated loading of GST-KRAS G12C-GDP with fluorescent GTP analogue; 180 min preincubation; 20° C.; read-out: IC50 value biochemical KRAS^G12C activation assay
Experimental: (§1) Preparation of test compound dilutions. A 100-fold concentrated solution of the test compound (50 nL) in DMSO was transferred to microtiter test plates (384 or 1,536 wells, Greiner Bio-One, Germany) using either a Hummingbird liquid handler (Digilab, MA, USA) or an Echo acoustic system (Labcyte, CA, USA). Plates were sealed with adhesive foil or heat-sealed and stored at −20° C. until use. Serial dilutions of test compounds were prepared in 100% DMSO using a Precision Pipetting System (BioTek, USA).
(§2) Measurement and evaluation of inhibition data, calculation of IC50 values. Homogeneous time-resolved fluorescence (HTRF) was measured with a PHERAstar reader (BMG, Germany) using the HTRF module (excitation: 337 nm; emission 1: 620 nm, emission 2: 665 nm). The ratio of the emissions at 665 and 620 nm was used as the specific signal for further evaluation. The data were normalized using the controls: DMSO=0% inhibition, inhibition control wells with inhibitor control solution=100% inhibition. Compounds were tested in duplicates at up to 11 concentrations (e.g. 20 μM, 5.7 μM, 1.6 μM, 0.47 μM, 0.13 μM, 38 nM, 11 nM, 3.1 nM, 0.89 nM, 0.25 nM and 0.073 nM). IC50 values were calculated using a four-parameter fit, with a commercial software package (Genedata Screener, Switzerland).
(§3) KRAS^G12C activation by SOS1^cat assay (“On-assay”). This assay quantifies SOS1^cat mediated loading of KRAS^G12C-GDP with a fluorescent GTP analogue. Detection of successful loading was achieved by measuring resonance energy transfer from anti-GST-terbium (FRET donor) bound to GST-KRAS^G12c to the loaded fluorescent GTP analogue (FRET acceptor). The fluorescent GTP analogue EDA-GTP-DY-647P1 [2′/3′-O-(2-aminoethyl-carbamoyl)guanosine-5′-triphosphate labelled with DY-647P1 (Dyomics GmbH, Germany)] was synthesized by Jena Bioscience (Germany) and supplied as a 1 mM aqueous solution. A KRAS^G12C working solution was prepared in assay buffer [10 mM HEPES pH 7.4 (AppliChem), 150 mM NaCl (Sigma), 5 mM MgCl2 (Sigma), 1 mM DTT (Thermo Fisher), 0.05% BSA Fraction V pH 7.0 (ICN Biomedicals), 0.0025% (v/v) Igepal (Sigma)] containing 100 nM GST-KRAS^G12C and 2 nM anti-GST-terbium (Cisbio, France). A SOS1^cat working solution was prepared in assay buffer containing 20 nM SOS1^cat and 200 nM EDA-GTP-DY-647P1. An inhibitor control solution was prepared in assay buffer containing 200 nM EDA-GTP-DY-647P1 without SOS1^cat. All steps of the assay were performed at 20° C. A volume of 2.5 μL of the KRAS^G12C working solution was added to all wells of the test plate using a Multidrop dispenser (Thermo LabSystems). After 180 min, 2.5 μL of the SOS1^cat working solution was added to all wells, except for the inhibitor control solution wells. After 30 min incubation, HTRF was measured.

[1] = target: recombinant kRas mutant (G12C; C51S; C80L; C118S) (Homo sapiens, UniProt P01116, C118S/C51S/C80L/G12C); test: Covalent binding assay, intact mass LC-MS; conditions: 25 μM protein, 25 μM compound, room temperature, 2 h
Experimental: The percentage of covalent adduct formation at KRas G12C was determined by intact mass determination. To this end 25 μM recombinant kRas mutant (G12C; C51S; C80L; C118S) (storage buffer: 50 mM Tris, pH=8; 50 mM NaCl) were incubated with 25 μM of compound (1% v/v final DMSO concentration) at room temperature for 2 h. For LC-MS analysis the reaction was acidified by adding 4 μL of 4% v/v TFA to 20 μL reaction volume.
Liquid chromatography-mass spectrometry (LC-MS) analysis was performed using a Waters SYNAPT G2-S quadrupole time-of-flight mass spectrometer connected to a Waters nanoAcquity UPLC system. Samples were loaded on a 2.1×5 mm mass prep C4 guard column (Waters) and desalted with a short gradient (3 min.) of increasing concentrations of acetonitrile at a flow rate of 100 μL/min. Spectra were analyzed by using MassLynx v4.1 software and deconvoluted with the MaxEnt1 algorithm.
Percent conversion was determined by the ratio of signal intensities of apo-kRas and kRas+inhibitor.

KRAS^WT = KRAS^WT (Homo sapiens, UniProt P01116); test: Wild-type KRAS activation by SOS1cat assay, HTRF; conditions: SOS1cat mediated loading of GST-KRAS WT-GDP with fluorescent GTP analogue; 50 nM GST-KRAS WT; read-out: IC50 value biochemical KRAS^wt activation assay
Experimental: as §1, §2, §3
Wild-type KRAS activation by SOS1^cat assay. This assay quantifies human SOS1^cat mediated loading of wild-type GST-KRAS^WT-GDP with a fluorescent GTP analogue. The assay was performed similar to the KRAS^G12C activation by SOS1^cat assay. GST-KRAS^G12C was replaced by GST-KRAS^WT, which was used at 50 nM final concentration.

| IC50 (KRAS^G12C) [µM] | Covalent Binding Assay (% binding) [1] [%] | IC50 (KRAS^WT) [µM] | SMILES |
| --- | --- | --- | --- |
| 4.7 | – | – | C=CC(=O)N1CCC(c2cc3ccc(-c4c(O)cccc4F)cc3c(=O)[nH]2)C1 (stereo not shown) [Example 1, 7-(2-Fluoro-6-hydroxyphenyl)-3-[1-(prop-2-enoyl)pyrrolidin-3-yl]isoquinolin-1(2H)-one] |
| > 9 | 20 | – | C=CC(=O)N1CCC(c2cc3ccc(-c4cccc5ncccc45)cc3c(=O)[nH]2)C1 (stereo not shown) [Example 2, 3-[1-(Prop-2-enoyl)pyrrolidin-3-yl]-7-(quinolin-5-yl)isoquinolin-1(2H)-one] |
| > 20 | 8 | > 20 | C=CC(=O)N1CCC(c2cc3ccc(-c4cccc5[nH]ccc45)cc3c(=O)[nH]2)C1 (stereo not shown) [Example 3, 7-(1H-Indol-4-yl)-3-[1-(prop-2-enoyl)pyrrolidin-3-yl]isoquinolin-1(2H)-one] |
| 5 | – | – | C=CC(=O)N1CCC(c2cc3ccc(-c4ccc(F)cc4F)cc3c(=O)[nH]2)C1 (stereo not shown) [Example 4, 7-(2,4-Difluorophenyl)-3-[1-(prop-2-enoyl)pyrrolidin-3-yl]isoquinolin-1(2H)-one] |
| 8 | 60 | – | C=CC(=O)N1CCC(c2cc3ccc(-c4ccccc4CC)cc3c(=O)[nH]2)C1 (stereo not shown) [Example 5, 7-(2-Ethylphenyl)-3-[1-(prop-2-enoyl)pyrrolidin-3-yl]isoquinolin-1(2H)-one] |
| > 20 | 3 | > 20 | C=CC(=O)N1CCC(c2cc3ccc(-c4ccc(F)c(OCC)c4F)cc3c(=O)[nH]2)C1 (stereo not shown) [Example 6, 7-(3-Ethoxy-2,4-difluorophenyl)-3-[1-(prop-2-enoyl)pyrrolidin-3-yl]isoquinolin-1(2H)-one] |
| > 7 | 31 | > 20 | C=CC(=O)N1CCC(c2cc3ccc(-c4ccc(F)c(F)c4F)cc3c(=O)[nH]2)C1 (stereo not shown) [Example 7, 3-[1-(Prop-2-enoyl)pyrrolidin-3-yl]-7-(2,3,4-trifluorophenyl)isoquinolin-1(2H)-one] |
| – | 0 | – | C=CC(=O)N1CCC(c2cc3ccc(-c4cc(F)cc(F)c4)cc3c(=O)[nH]2)C1 (stereo not shown) [Example 8, 7-(3,5-Difluorophenyl)-3-[1-(prop-2-enoyl)pyrrolidin-3-yl]isoquinolin-1(2H)-one] |
| > 20 | 0 | > 20 | C=CC(=O)N1CCC(c2cc3cc(OC)c(-c4ncccc4F)cc3c(=O)[nH]2)C1 (stereo not shown) [Example 9, 7-(3-Fluoropyridin-2-yl)-6-methoxy-3-[-1-(prop-2-enoyl)pyrrolidin-3-yl]isoquinolin-1(2H)-one] |
| > 20 | 0 | > 20 | C=CC(=O)N1CCC(c2cc3cc(O)c(-c4ncccc4F)cc3c(=O)[nH]2)C1 (stereo not shown) [Example 10, 3-(1-Acryloylpyrrolidin-3-yl)-7-(3-fluoropyridin-2-yl)-6-hydroxy-isoquinolin-1(2H)-one] |
| 16 | 41 | > 20 | C=CC(=O)N1CCC(c2nc3ccc(-c4c(F)cccc4OC)cc3c(=O)[nH]2)C1 (stereo not shown) [Example 11] |
| 6.2 | 70 | > 20 | C=CC(=O)N1CCC(c2nc3ccc(-c4ccccc4F)cc3c(=O)[nH]2)C1 (stereo not shown) [Example 12, 6-(2-Fluorophenyl)-2-[1-(prop-2-enoyl)pyrrolidin-3-yl]quinazolin-4(3H)-one] |
| 8.4 | 57 | > 20 | C=CC(=O)N1CCC(c2nc3ccc(-c4ccc(F)cc4F)cc3c(=O)[nH]2)C1 (stereo not shown) [Example 13, 6-(2,4-Difluorophenyl)-2-[1-(prop-2-enoyl)pyrrolidin-3-yl]quinazolin-4(3H)-one] |
| > 20 | 22 | > 20 | C=CC(=O)N1CCC(c2nc3ccc(-c4cccc5ncccc45)cc3c(=O)[nH]2)C1 (stereo not shown) [Example 14, 2-[1-(Prop-2-enoyl)pyrrolidin-3-yl]-6-(quinolin-5-yl)quinazolin-4(3H)-one] |
| 7.3 | 52 | > 20 | C=CC(=O)N1CCC(c2nc3ccc(-c4ccccc4CC)cc3c(=O)[nH]2)C1 (stereo not shown) [Example 15, 6-(2-Ethylphenyl)-2-[1-(prop-2-enoyl)pyrrolidin-3-yl]quinazolin-4(3H)-one] |
| > 20 | 0 | > 20 | C=CC(=O)N1CCC(c2nc3ccc(-c4cc(Cl)cc(C#N)c4)cc3c(=O)[nH]2)C1 (stereo not shown) [Example 16, 3-Chloro-5-{4-oxo-2-[1-(prop-2-enoyl)pyrrolidin-3-yl]-3,4-dihydroquinazolin-6-yl}benzonitrile] |
| 4.9 | – | – | C=CC(=O)N1CCC(c2nc3ccc(-c4c(O)cccc4F)cc3c(=O)[nH]2)C1 (stereo not shown) [Example 17, 6-(2-Fluoro-6-hydroxyphenyl)-2-[1-(prop-2-enoyl)pyrrolidin-3-yl]quinazolin-4(3H)-one] |
| > 20 | 4 | > 20 | C=CC(=O)N1CCC(c2nc3ccc(-c4cncc5ccccc45)cc3c(=O)[nH]2)C1 (stereo not shown) [Example 18, 6-(Isoquinolin-4-yl)-2-[1-(prop-2-enoyl)pyrrolidin-3-yl]quinazolin-4(3H)-one] |
| > 20 | 4 | > 20 | C=CC(=O)N1CCC(c2nc3ccc(-c4sc(C)nc4C)cc3c(=O)[nH]2)C1 (stereo not shown) [Example 19, 6-(2,4-dimethyl-1,3-thiazol-5-yl)-2[1-(prop-2-enoyl)pyrrolidin-3-yl]quinazolin-4(3H)-one] |
| 16 | – | – | C=CC(=O)N1CCC(c2cc3cc(Cl)c(-c4c(O)cccc4F)cc3c(=O)[nH]2)C1 (stereo not shown) [Example 27, 6-Chloro-7-(2-fluoro-6-hydroxyphenyl)-3-[1-(prop-2-enoyl)pyrrolidin-3-yl]isoquinolin-1(2H)-one] |
| 2.8 | 80 | – | C=CC(=O)N1CCC(c2cc3ncc(-c4c(O)cccc4F)cc3c(=O)[nH]2)C1 (stereo not shown) [Example 29, 3-(2-Fluoro-6-hydroxyphenyl)-7-[1-(prop-2-enoyl)pyrrolidin-3-yl]-1,6-naphthyridin-5(6H)-one] |
| 1.3 | 61 | – | C=CC(=O)N1CCC(c2cc3cnc(-c4c(O)cccc4F)cc3c(=O)[nH]2)C1 (stereo not shown) [Example 42, 7-(2-Fluoro-6-hydroxyphenyl)-3-[1-(prop-2-enoyl)pyrrolidin-3-yl]-2,6-naphthyridin-1(2H)-one] |
